Test results taken from patent US9139532B2, “Pyrazolyl guanidine F1F0-atpase inhibitors and therapeutic uses thereof” (Lycera Corporation, priority 2010, dated 2015).
Where two headings read alike, the source gives them in different places.

What was measured:
F1F0-ATPase = biological target: T1, F1F0-ATPase (Bos taurus, UniProt P13621); assay: Inhibition of F1F0-ATPase activity in synthesizing ATP; assay type: biochemical; settings: inhibition of ATP synthesis by F1F0-ATPase; read-out: ATP Syn IC50
T1 construct: from tissue

Ramos cells = assay: Cytotoxicity in Ramos cells; assay type: cell-based; settings: cytotoxicity in Ramos cells, read-out: Ramos Cell EC50

Row | Compound | IC50 (F1F0-ATPase) | EC50 (Ramos cells) | EC50 (Ramos cells; Homo sapiens)
1 | O=C(N=C(Nc1cc(C(F)(F)F)n[nH]1)NC1CCC(O)CC1)c1ccc(F)c(F)c1 (stereo not drawn) [Compound A-559] | > 10 µM |  | > 10 µM
2 | Cc1cc(N/C(=N\C(=O)c2ccc(C(F)(F)F)cc2)NC(C)C)n[nH]1 [Compound A-190] | > 10 µM | > 10 µM | 
3 | COc1ccc(-c2cc(NC(=NC(=O)c3ccc(Cl)c(F)c3)NC3CCOCC3)n[nH]2)cc1 [Compound A-462] | > 10 µM |  | > 10 µM
4 | CCC(C)NC(=NC(=O)c1ccc(C(F)(F)F)cc1)Nc1cc(-c2cc(F)cc(F)c2)n[nH]1 (stereo not drawn) [Compound A-297] | < 10 µM |  | < 10 µM
5 | COc1cccc(C(=O)N=C(Nc2cc(-c3ccc(F)cc3)n[nH]2)NC2CCCC2)c1 [Compound A-519] | < 10 µM |  | < 10 µM
6 | CC(C)(C)c1n[nH]c(N/C(=N\C(=O)c2ccc(C(F)(F)F)cc2)Nc2ccc(F)cc2Cl)c1F [Compound A-336] | < 10 µM | < 10 µM | 
7 | COC(=O)c1cc(NC(=NC(=O)c2ccc(C(F)(F)F)cc2)NCc2ccc(F)cc2Cl)[nH]n1 [Compound A-338] | < 10 µM |  | < 10 µM
8 | O=C(/N=C(\Nc1cc(C(F)(F)F)[nH]n1)NC1CCCCCC1)c1ccc(C(F)F)cc1 [Compound A-87] | < 10 µM |  | < 10 µM
9 | O=C(/N=C(/NCc1ccc(F)c(Cl)c1)Nc1cc(C(F)F)[nH]n1)c1ccc(F)c(F)c1 [Compound A-61] | < 10 µM |  | > 10 µM
10 | Cc1ccc(-c2cc(N/C(=N\C(=O)c3ccc(F)c(F)c3)NC(C)C)[nH]n2)cc1F [Compound A-319] | < 10 µM | < 10 µM | 
11 | Cc1ccc(C(=O)N=C(NCc2ccc(F)cc2Cl)Nc2cc(C(F)(F)F)n[nH]2)cc1 [Compound A-549] | < 10 µM |  | < 10 µM
12 | Cc1cc(C(=O)/N=C(/NCc2ccc(F)cc2Cl)Nc2cc(C(F)(F)F)[nH]n2)ccn1 [Compound A-86] | < 10 µM |  | > 10 µM
13 | CC(C)N/C(=N/C(=O)c1ccc(Cl)cc1)Nc1cc(C(F)F)[nH]n1 [Compound A-55] | < 10 µM |  | > 10 µM
14 | COC[C@H](C)N/C(=N/C(=O)c1ccc(OC)cc1)Nc1cc(C(F)(F)F)[nH]n1 [Compound A-536] | < 10 µM | < 10 µM | 
15 | CC(C)OCCCNC(=NC(=O)c1ccc(F)c(F)c1)Nc1cc(-c2cc(F)cc(Cl)c2)n[nH]1 [Compound A-283] | < 10 µM |  | < 10 µM
16 | CC1(CN/C(=N/C(=O)c2ccc(F)cc2)Nc2cc(-c3ccc(F)cc3)n[nH]2)COC1 [Compound A-196] | < 10 µM | < 10 µM | 
17 | COC[C@H](C)NC(=NC(=O)c1ccc(F)cc1)Nc1cc(-c2ccc(F)cc2)n[nH]1 [Compound A-533] | < 10 µM |  | < 10 µM
18 | CC1(N/C(=N/C(=O)c2ccc(Cl)cc2)Nc2cc(C(C)(C)C)[nH]n2)CCC1 [Compound A-17] | < 10 µM |  | < 10 µM
19 | CCOC[C@H](C)NC(=NC(=O)c1ccc(Cl)cc1)Nc1cc(-c2ccc(F)cc2)n[nH]1 [Compound A-265] | < 10 µM |  | < 10 µM
20 | CC(C)(C)NC(=NC(=O)c1cccc(Cl)c1)Nc1cc(-c2ccc(Cl)cc2)n[nH]1 [Compound A-130] | < 10 µM |  | < 10 µM
21 | CC(C)NC(=NC(=O)c1ccc(C(F)(F)F)cc1)Nc1cc(-c2cc(F)cc(F)c2)n[nH]1 [Compound A-296] | < 10 µM |  | < 10 µM
22 | Cn1nc(C(F)(F)F)cc1N/C(=N\C(=O)c1ccc(C(F)(F)F)cc1)Nc1cc(F)cc(Cl)c1 [Compound A-48] | < 10 µM |  | < 10 µM
23 | CC(C)(C)NC(=NC(=O)c1cc(F)c(F)c(F)c1)Nc1cc(-c2ccc(F)cc2)n[nH]1 [Compound A-403] | < 10 µM |  | < 10 µM
24 | O=C(N=C(NCC1CCO1)Nc1cc(-c2ccc(F)cc2)n[nH]1)c1ccc(Cl)c(F)c1 (stereo not drawn) [Compound A-215] | > 10 µM |  | > 10 µM
25 | N#CC1(N/C(=N/C(=O)c2ccc(Cl)c(F)c2)Nc2cc(-c3cc(F)cc(F)c3)n[nH]2)CC1 [Compound A-343] | < 10 µM |  | > 10 µM

More lines, main results first:

Row | IC50 (F1F0-ATPase) | Compound | EC50 (Ramos cells) | EC50 (Ramos cells; Homo sapiens)
26 | < 10 µM | COc1cccc(C(=O)/N=C(/Nc2cc(F)cc(Cl)c2)Nc2cc(-c3ccc(Cl)cc3)[nH]n2)c1 [Compound A-168] | < 10 µM | 
27 | < 10 µM | CCOCCCNC(=NC(=O)c1ccc(Cl)cc1)Nc1cc(-c2ccc(F)cc2)n[nH]1 [Compound A-278] |  | > 10 µM
28 | < 10 µM | CC(C)(C)NC(=NC(=O)c1cccc(C#N)c1)Nc1cc(-c2ccc(F)cc2)n[nH]1 [Compound A-527] |  | < 10 µM
29 | < 10 µM | COC[C@H](C)N/C(=N/C(=O)c1ccc(Cl)c(F)c1)Nc1cc(-c2ccc(Cl)cc2)n[nH]1 [Compound A-380] | < 10 µM | 
30 | < 10 µM | O=C(/N=C(/NCc1ccc(F)cc1Cl)Nc1cc(C(F)(F)F)[nH]n1)c1ccc(Cl)cc1 [Compound A-30] |  | < 10 µM
31 | < 10 µM | CC(C)(C)N/C(=N/C(=O)c1ccc(F)c(F)c1)Nc1cc(-c2cccc(Cl)c2)[nH]n1 [Compound A-136] | < 10 µM | 
32 | < 10 µM | Cc1cc(-c2cc(N/C(=N\C(=O)c3ccc(F)cc3)NC(C)(C)C)n[nH]2)ccc1F [Compound A-418] | < 10 µM | 
33 | < 10 µM | CC(C)CN/C(=N/C(=O)c1cccc(C#N)c1)Nc1cc(-c2cc(F)cc(F)c2)n[nH]1 [Compound A-310] | < 10 µM | 
34 | < 10 µM | COCC(C)NC(=NC(=O)c1ccc(Cl)c(F)c1)Nc1cc(-c2ccc(F)cc2)n[nH]1 (stereo not drawn) [Compound A-218] | < 10 µM | 
35 | < 10 µM | COC[C@H](C)N/C(=N/C(=O)c1ccc(Cl)cc1)Nc1cc(-c2ccc(F)cc2)n[nH]1 [Compound A-272] |  | < 10 µM
36 | < 10 µM | O=C(N=C(Nc1cc(F)cc(Cl)c1)Nc1cc(-c2ccc(F)cc2)n[nH]1)c1ccc(F)cc1 [Compound A-461] |  | < 10 µM
37 | < 10 µM | Cc1cc(N/C(=N\C(=O)c2ccc(F)c(F)c2)NCC(C)(C)C)n[nH]1 [Compound A-187] | < 10 µM | 
38 | < 10 µM | CC(C)(C)CN/C(=N/C(=O)c1ccc(C(F)(F)F)nc1)Nc1cc(C(F)(F)F)[nH]n1 [Compound A-80] |  | < 10 µM
39 | < 10 µM | COCC(C)NC(=NC(=O)c1ccc(C#N)cc1)Nc1cc(-c2ccc(F)cc2)n[nH]1 (stereo not drawn) [Compound A-528] |  | > 10 µM
40 | < 10 µM | CC(C)(C)N/C(=N/C(=O)c1ccnc(N2CCCC2)c1)Nc1cc(-c2ccc(F)cc2)n[nH]1 [Compound A-487] | < 10 µM | 
41 | < 10 µM | O=C(/N=C(/NCC1CC1)Nc1cc(-c2cc(F)cc(F)c2)n[nH]1)c1ccc(Cl)c(F)c1 [Compound A-361] | < 10 µM | 
42 | < 10 µM | CCOc1cccc(C(=O)/N=C(\Nc2cc(-c3ccc(F)cc3)[nH]n2)NC(C)(C)C)c1 [Compound A-402] | < 10 µM | 
43 | < 10 µM | CC(C)C(C)N/C(=N/C(=O)c1cccc(C#N)c1)Nc1cc(-c2ccc(Cl)cc2)n[nH]1 (stereo not drawn) [Compound A-304] | < 10 µM | 
44 | < 10 µM | COc1cccc(CN/C(=N/C(=O)c2cccc(OC)c2)Nc2cc(-c3ccc(F)cc3)[nH]n2)c1 [Compound A-394] | < 10 µM | 
45 | < 10 µM | CCC(C)N/C(=N/C(=O)c1ccc(F)c(F)c1)Nc1cc(-c2ccc(C)c(F)c2)n[nH]1 (stereo not drawn) [Compound A-325] | < 10 µM | 
